Experimental data reported in patent US20250332173A1, “COMPOUNDS AND METHODS FOR MODULATING NUCLEIC ACID SPLICING” (REMIX THERAPEUTICS INC., priority 2021, published 2025).
Like-named read-outs stand apart in the source and are kept apart here.

How the values were obtained:
HTT mRNA = assay: RT-qPCR splicing assay, HTT canonical junction (CJ) and alternative junction (AJ) mRNA; type: cell-based, human; settings: for AC50: increase in HTT alternative junction (AJ) mRNA, read-out: HTT AJ AC50
In short: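 Splicing switches were read by TaqMan RT-qPCR on lysates, quantifying exon-exon junctions of the canonical and alternative-exon isoforms. Lysates came from K562 (GAPDH/GUSB reference) or A673 (PPIA reference) cells exposed 24 h to compound in 11 threefold steps from 10 uM, with DMSO ≤0.25%.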

SMN2 mRNA = assay: RT-qPCR splicing assay, SMN2 canonical junction (CJ) mRNA; type: cell-based, human; settings: Table 5 panel, canonical junction qPCR, compound concentration having 50% response in CJ decrease, read-out: SMN2 IC50 (decrease in CJ mRNA levels)
In short: (§1)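 Canonical exon-exon junction transcript levels measured by one-step RT-qPCR of cell lysates, normalized to a housekeeping gene (GAPDH, GUSB or PPIA). Cells used were A673 or K562, exposed for 24 h to compound in 11-point, 3-fold series from 10 uM, with final DMSO at or below 0.25%.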

Target C = assay: RT-qPCR splicing assay panel, Target C canonical junction (CJ) mRNA; type: cell-based, human; settings: Table 5 panel, canonical junction qPCR, compound concentration having 50% response in CJ decrease, read-out: Target C IC50 (decrease in CJ mRNA levels)
In short: as §1

[1] = system: K562 (human chronic myelogenous leukemia) cells; assay: Cell Titer Glo 2.0 cell viability assay; type: cell-based; settings: Homo sapiens, K562, 72 h, K562 cells, 72 hours, Cell Titer Glo 2.0; read-out: K562 GI50
[2] = Homo sapiens, decrease in HTT canonical junction (CJ) mRNA, RT-qPCR, read-out: HTT CJ IC50
[3] = Homo sapiens, Table 5 panel, canonical junction qPCR, compound concentration having 50% response in CJ decrease, read-out: HTT IC50 (decrease in CJ mRNA levels)

Compound | IC50 (HTT mRNA; [2]) [µM] | AC50 (HTT mRNA; Homo sapiens, RT-qPCR) [µM] | IC50 (HTT mRNA; [3]) [µM] | IC50 (SMN2 mRNA; Homo sapiens) [µM] | IC50 (Target C; Homo sapiens) [µM] | GI50 [1] [µM] | IC50 (HTT mRNA; Table 5 panel, canonical junction qPCR, compound concentration having 50% response in CJ decrease, read-out: HTT IC50 (decrease in CJ mRNA levels)) [µM] | IC50 (HTT mRNA; decrease in HTT canonical junction (CJ) mRNA, RT-qPCR, read-out: HTT CJ IC50) [µM] | AC50 (HTT mRNA; RT-qPCR) [µM] | IC50 (SMN2 mRNA) [µM] | IC50 (Target C) [µM]
Cc1cn2cc(-c3ccc4c(c3)CCN(C3CCNCC3)C4=O)cc(F)c2n1 [Compound 247] | 1 to 10 | 1 to 10 | 1 to 10 | < 0.1 | 1 to 10 | 0.1 to 1 | – | – | – | – | –
Cc1cn2nc(-c3cc(F)c4c(=O)n(C5CCNCC5)cnc4c3)cc(C)c2n1 [Compound 243] | < 0.1 | < 0.1 | < 0.1 | < 0.1 | < 0.1 | < 0.1 | – | – | – | – | –
Cc1nc2c(F)cc(-c3ccc4c(=O)n(C5CCNCC5)ncc4c3)cc2s1 [Compound 253] | 1 to 10 | 1 to 10 | 1 to 10 | 0.1 to 1 | 1 to 10 | 0.1 to 1 | – | – | – | – | –
Cc1cn2nc(-c3ccc4c(=O)n(C5CCN(C)CC5)ncc4c3)cc(C)c2n1 [Compound 265] | < 0.1 | < 0.1 | < 0.1 | < 0.1 | 0.1 to 1 | 0.1 to 1 | – | – | – | – | –
Cc1cn2cc(-c3ccc4c(=O)n(C5CCNCC5)cnc4c3)c(C)cc2n1 [Compound 244] | > 10 | > 10 | > 10 | 0.1 to 1 | > 10 | > 10 | – | – | – | – | –
Cc1cn2cc(-c3ccc4c(=O)n(C5CCNCC5)ncc4c3)c(C)cc2n1 [Compound 254] | 1 to 10 | 1 to 10 | 1 to 10 | 1 to 10 | 1 to 10 | 1 to 10 | – | – | – | – | –
Cc1cn2cc(-c3ccc4c(=O)n(C5CCNCC5)ncc4c3)cc(C(F)(F)F)c2n1 [Compound 262] | 1 to 10 | 1 to 10 | 1 to 10 | < 0.1 | 1 to 10 | 0.1 to 1 | – | – | – | – | –
Cc1cc(-c2ccc3c(=O)n(C4CCNCC4)ncc3c2)cc2cn(C)nc12 [Compound 251] | 0.1 to 1 | 0.1 to 1 | 0.1 to 1 | < 0.1 | 0.1 to 1 | 1 to 10 | – | – | – | – | –
Cc1cn2cc(-c3ccc4c(c3)CCN(C3CCNCC3)C4=O)cc(C(F)(F)F)c2n1 [Compound 252] | > 10 | > 10 | > 10 | 0.1 to 1 | > 10 | 1 to 10 | – | – | – | – | –
Cc1cn2cc(-c3ccc4c(=O)n(C5CCNCC5)ncc4c3)cc(F)c2n1 [Compound 248] | 0.1 to 1 | < 0.1 | < 0.1 | < 0.1 | 0.1 to 1 | < 0.1 | – | – | – | – | –
O=c1c2ccc(-c3cn[nH]c3)cc2cnn1C1CCNCC1 [Compound 261] | > 10 | > 10 | > 10 | 1 to 10 | > 10 | > 10 | – | – | – | – | –
Cc1cn2nc(-c3ccc4c(=O)n(C5CCNCC5)ncc4c3)nc2c(C)n1 [Compound 259] | 0.1 to 1 | 0.1 to 1 | 0.1 to 1 | 0.1 to 1 | 0.1 to 1 | 0.1 to 1 | – | – | – | – | –
Cn1cc2ccc(-c3ccc4c(=O)n(C5CCNCC5)ncc4c3)cc2n1 [Compound 263] | > 10 | > 10 | > 10 | > 10 | > 10 | 1 to 10 | – | – | – | – | –
Cc1cn2cc(-c3ccc4c(=O)n(C5CCNCC5)ncc4c3)ncc2n1 [Compound 255] | 1 to 10 | 1 to 10 | 1 to 10 | 0.1 to 1 | > 10 | 0.1 to 1 | – | – | – | – | –
Cc1cn2cc(-c3ccc4c(=O)n(C5CCNCC5)ncc4c3)cc(Cl)c2n1 [Compound 256] | 0.1 to 1 | 0.1 to 1 | 0.1 to 1 | < 0.1 | > 10 | < 0.1 | – | – | – | – | –
Cc1cn2nc(-c3ccc4c(=O)n(C5CCNC5)ncc4c3)cc(C)c2n1 (stereo not drawn) [Compound 264] | 1 to 10 | 1 to 10 | 1 to 10 | 0.1 to 1 | > 10 | 1 to 10 | – | – | – | – | –
Cc1cn2nc(-c3ccc4c(=O)n([C@@H]5CCNC6(CC6)C5)cnc4c3)cc(C)c2n1 [Compound 444] | – | – | – | – | – | 0.1 to 1 | 0.1 to 1 | 0.1 to 1 | 0.1 to 1 | < 0.1 | 0.1 to 1
Cn1cc2cc(-c3ccc4c(=O)n(C5CCNCC5)ncc4c3)cc(F)c2n1 [Compound 249] | 1 to 10 | 1 to 10 | 1 to 10 | 1 to 10 | 1 to 10 | 1 to 10 | – | – | – | – | –
Cc1cn2nc(-c3ccc4c(=O)n(C5CCNCC5)ncc4c3)cc2c(C)n1 [Compound 260] | 0.1 to 1 | 0.1 to 1 | 0.1 to 1 | 0.1 to 1 | 1 to 10 | 0.1 to 1 | – | – | – | – | –
Cc1nc2c(F)cc(-c3ccc4c(=O)n(C5CCNCC5)cnc4c3)cc2o1 [Compound 245] | 0.1 to 1 | 0.1 to 1 | 0.1 to 1 | < 0.1 | 0.1 to 1 | 0.1 to 1 | – | – | – | – | –
Cc1cn2cc(-c3ccc4c(=O)n(C5CCN(C)CC5)cnc4c3)c(C)cc2n1 [Compound 246] | 1 to 10 | 1 to 10 | 1 to 10 | 1 to 10 | 1 to 10 | 1 to 10 | – | – | – | – | –
Cc1cn2cc(-c3ccc4c(=O)n(C5CCNCC5)ncc4c3)cc(C)c2n1 [Compound 257] | 0.1 to 1 | 0.1 to 1 | 0.1 to 1 | < 0.1 | 1 to 10 | < 0.1 | – | – | – | – | –
Cc1nc2c(F)cc(-c3ccc4c(=O)n(C5CCNCC5)ncc4c3)cc2o1 [Compound 250] | < 0.1 | < 0.1 | < 0.1 | < 0.1 | 0.1 to 1 | < 0.1 | – | – | – | – | –
